In patent US10519134B2, “Pyrazole compounds and methods of making and using same” (Lundbeck La Jolla Research Center, Inc., priority 2015, dated 2019):
pIC50: −log10 of the molar value.

What was measured:
FAAH = target: T1, FAAH (Mus musculus, UniProt O08914); experiment: In vitro competitive activity-based protein profiling (mouse), FAAH gel band; format: biochemical; settings: for pIC50: mouse; for inhibition at 1 µM: read-out: FAAH % inh. 1 μM
T1 construct: Proteomes (mouse brain membrane fraction or cell lysates); from tissue; host or cells: mouse brain membrane fraction (or cell lysates)
T1 sequence (O08914 1-579): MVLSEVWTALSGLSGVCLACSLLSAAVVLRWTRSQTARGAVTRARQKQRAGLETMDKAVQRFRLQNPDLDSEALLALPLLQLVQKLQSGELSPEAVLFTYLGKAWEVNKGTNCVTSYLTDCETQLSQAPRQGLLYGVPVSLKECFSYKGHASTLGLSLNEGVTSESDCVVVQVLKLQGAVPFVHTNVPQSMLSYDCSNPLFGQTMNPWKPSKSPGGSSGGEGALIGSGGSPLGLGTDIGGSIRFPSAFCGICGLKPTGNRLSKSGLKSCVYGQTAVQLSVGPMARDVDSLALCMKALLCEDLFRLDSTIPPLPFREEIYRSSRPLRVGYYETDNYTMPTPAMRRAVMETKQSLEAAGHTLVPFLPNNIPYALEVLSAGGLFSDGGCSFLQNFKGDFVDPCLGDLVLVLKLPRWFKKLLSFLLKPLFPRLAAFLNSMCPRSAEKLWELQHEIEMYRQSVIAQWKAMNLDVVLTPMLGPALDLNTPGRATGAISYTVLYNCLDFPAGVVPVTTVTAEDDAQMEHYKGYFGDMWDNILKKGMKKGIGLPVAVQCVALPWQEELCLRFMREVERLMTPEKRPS
How it was run: (§1)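 Gel-based competitive ABPP: proteome 1.0 mg/mL, inhibitor 30 min 37 °C, then FP-Rh or HT-01 probe (stock 50 μM) 30 min 37 °C; SDS quench, SDS-PAGE, in-gel fluorescence of the enzyme band quantified.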

MAGL = target: T2, MAGL (Mus musculus, UniProt O35678); experiment: In vitro competitive activity-based protein profiling (mouse), MAGL gel band; format: biochemical; settings: for pIC50: mouse; for inhibition at 1 µM: read-out: MAGL % inh. 1 μM
T2 construct: Proteomes (mouse brain membrane fraction or cell lysates); from tissue; host or cells: mouse brain membrane fraction (or cell lysates)
T2 sequence (O35678 1-303): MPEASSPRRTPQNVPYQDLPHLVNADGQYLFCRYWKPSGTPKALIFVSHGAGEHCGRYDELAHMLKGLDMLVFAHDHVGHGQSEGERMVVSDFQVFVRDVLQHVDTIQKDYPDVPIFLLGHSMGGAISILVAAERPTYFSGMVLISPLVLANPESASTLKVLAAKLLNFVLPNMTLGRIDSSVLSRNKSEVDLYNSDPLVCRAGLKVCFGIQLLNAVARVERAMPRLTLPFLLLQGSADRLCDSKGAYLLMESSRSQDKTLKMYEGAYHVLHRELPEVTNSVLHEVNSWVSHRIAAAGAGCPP
How it was run: as §1

Structure (SMILES)	pIC50 (FAAH)	inhibition at 1 µM (FAAH) [%]	pIC50 (MAGL)	inhibition at 1 µM (MAGL) [%]
CC(C)S(=O)(=O)Nc1ccn(C(=O)N2CCN(Cc3ccc(C(F)(F)F)cc3N3CCCC3)CC2)n1 [Example 134, N-(1-(4-(2-(pyrrolidin-1-yl)-4-(trifluoromethyl)benzyl)piperazine-1-carbonyl)-1H-pyrazol-3-yl)propane-2-sulfonamide]	5.00 to 6.00	0 to 25	5.00 to 6.00	25 to 50
CS(=O)(=O)Nc1ccn(C(=O)N2CCN(Cc3ccc(Cl)cc3N3CCOCC3)CC2)n1 [Example 135, N-(1-(4-(4-chloro-2-morpholinobenzyl)piperazine-1-carbonyl)-1H-pyrazol-3-yl) methanesulfonamide]	5.00 to 6.00	0 to 25	6.00 to 7.00	≥ 75
Cc1ccc(CN2CCN(C(=O)n3ccc(NS(C)(=O)=O)n3)CC2)c(N2CCCCC2)c1 [Example 138, N-(1-(4-(4-methyl-2-(piperidin-1-yl)benzyl)piperazine-1-carbonyl)-1H-pyrazol-3-yl) methanesulfonamide]	5.00 to 6.00	0 to 25	6.00 to 7.00	≥ 75
CS(=O)(=O)Nc1ccn(C(=O)N2CCC3(CCCN3Cc3ccc(Cl)cc3N3C[C@H]4CC[C@@H](C3)O4)CC2)n1 [Example 139, N-(1-(1-(2-((1R,5S)-8-oxa-3-azabicyclo[3.2.1]octan-3-yl)-4-chlorobenzyl)-1,8-diazaspiro[4.5]decane-8-carbonyl)-1H-pyrazol-3-yl) methanesulfonamide]	5.00 to 6.00	0 to 25	6.00 to 7.00	≥ 75
CS(=O)(=O)Nc1ccn(C(=O)N2CCC3(CCCN3Cc3cccc(N4CCCC4)c3Cl)CC2)n1 [Example 141, N-(1-(1-(2-chloro-3-(pyrrolidin-1-yl)benzyl)-1,8-diazaspiro[4.5]decane-8-carbonyl)-1H-pyrazol-3-yl) methanesulfonamide]	5.00 to 6.00	0 to 25	6.00 to 7.00	≥ 75
CS(=O)(=O)Nc1ccn(C(=O)N2CCC3(CCCN3Cc3cccc(N4CCOCC4)c3Cl)CC2)n1 [Example 143, N-(1-(1-(2-chloro-3-morpholinobenzyl)-1,8-diazaspiro[4.5]decane-8-carbonyl)-1H-pyrazol-3-yl) methanesulfonamide]	–	0 to 25	–	50 to 75
CS(=O)(=O)Nc1ccn(C(=O)N2CCC3(CCCN3Cc3cccc(N4CCCCC4)c3Cl)CC2)n1 [Example 144, N-(1-(1-(2-chloro-3-(piperidin-1-yl)benzyl)-1,8-diazaspiro[4.5]decane-8-carbonyl)-1H-pyrazol-3-yl) methanesulfonamide]	5.00 to 6.00	0 to 25	6.00 to 7.00	≥ 75
CS(=O)(=O)Nc1ccn(C(=O)N2CCC3(CCCN3Cc3cccc(N4CC5CCC(C4)O5)c3Cl)CC2)n1 [Example 145, N-(1-(1-(3-(8-oxa-3-azabicyclo[3.2.1]octan-3-yl)-2-chlorobenzyl)-1,8-diazaspiro[4.5]decane-8-carbonyl)-1H-pyrazol-3-yl) methanesulfonamide]	5.00 to 6.00	0 to 25	6.00 to 7.00	≥ 75
Cc1ccc(CN2CCN(C(=O)n3ccc(NS(C)(=O)=O)n3)CC2)c(N2CCOCC2)c1 [Example 147, N-(1-(4-(4-methyl-2-morpholinobenzyl)piperazine-1-carbonyl)-1H-pyrazol-3-yl) methanesulfonamide]	–	0 to 25	–	≥ 75
CS(=O)(=O)Nc1ccn(C(=O)N2CCC3(CCCN3Cc3cccc(Cl)c3)CC2)n1 [Example 148, N-(1-(1-(3-chlorobenzyl)-1,8-diazaspiro[4.5]decane-8-carbonyl)-1H-pyrazol-3-yl)methanesulfonamide]	–	0 to 25	–	0 to 25
Cc1c(CN2CCCC23CCN(C(=O)n2ccc(NS(C)(=O)=O)n2)CC3)cccc1N1CC2CCC(C1)O2 [Example 149, N-(1-(1-(3-(8-oxa-3-azabicyclo[3.2.1]octan-3-yl)-2-methylbenzyl)-1,8-diazaspiro[4.5]decane-8-carbonyl)-1H-pyrazol-3-yl) methanesulfonamide]	–	0 to 25	–	50 to 75
Cc1cc(-c2ccccc2)ccc1CN1CCN(C(=O)n2ccc(NS(C)(=O)=O)n2)CC1 [Example 150, N-(1-(4-((3-methyl-[1,1′-biphenyl]-4-yl)methyl)piperazine-1-carbonyl)-1H-pyrazol-3-yl) methanesulfonamide]	6.00 to 7.00	≥ 75	6.00 to 7.00	≥ 75
COc1cc(-c2ccccc2)ccc1CN1CCN(C(=O)n2ccc(NS(C)(=O)=O)n2)CC1 [Example 151, N-(1-(4-((3-methoxy-[1,1′-biphenyl]-4-yl)methyl)piperazine-1-carbonyl)-1H-pyrazol-3-yl) methanesulfonamide]	–	25 to 50	–	≥ 75
CS(=O)(=O)Nc1ccn(C(=O)N2CCN(Cc3ccc(C(F)(F)F)c(N4CCCC4)c3)CC2)n1 [Example 153, N-(1-(4-(3-(pyrrolidin-1-yl)-4-(trifluoromethyl)benzyl)piperazine-1-carbonyl)-1H-pyrazol-3-yl) methanesulfonamide]	–	0 to 25	–	≥ 75
CS(=O)(=O)Nc1ccn(C(=O)N2CCN(Cc3ccc(C(F)(F)F)c(Cl)c3)CC2)n1 [Example 154, N-(1-(4-(3-chloro-4-(trifluoromethyl)benzyl)piperazine-1-carbonyl)-1H-pyrazol-3-yl) methanesulfonamide]	–	0 to 25	–	≥ 75
CS(=O)(=O)Nc1ccn(C(=O)N2CCN(Cc3cc(N4CCOCC4)cc(C(F)(F)F)c3)CC2)n1 [Example 155, N-(1-(4-(3-morpholino-5-(trifluoromethyl)benzyl)piperazine-1-carbonyl)-1H-pyrazol-3-yl) methanesulfonamide]	–	0 to 25	–	≥ 75
CS(=O)(=O)Nc1ccn(C(=O)N2CCN(Cc3ccc(N4CCOCC4)cc3C(F)(F)F)CC2)n1 [Example 157, N-(1-(4-(4-morpholino-2-(trifluoromethyl)benzyl)piperazine-1-carbonyl)-1H-pyrazol-3-yl) methanesulfonamide]	–	0 to 25	–	25 to 50
CS(=O)(=O)Nc1ccn(C(=O)N2CCN(Cc3ccc(-c4ccccc4)cc3Cl)CC2)n1 [Example 158, N-(1-(4-((3-chloro-[1,1′-biphenyl]-4-yl)methyl)piperazine-1-carbonyl)-1H-pyrazol-3-yl) methanesulfonamide]	6.00 to 7.00	≥ 75	≥ 7.00	≥ 75
CS(=O)(=O)Nc1ccn(C(=O)N2CCC3(CCCN3Cc3ccc(C(F)(F)F)c(N4CCCC4)c3)CC2)n1 [Example 160, N-(1-(1-(3-(pyrrolidin-1-yl)-4-(trifluoromethyl)benzyl)-1,8-diazaspiro[4.5]decane-8-carbonyl)-1H-pyrazol-3-yl) methanesulfonamide]	–	0 to 25	–	≥ 75
CS(=O)(=O)Nc1ccn(C(=O)N2CCC3(CCCN3Cc3cc(N4CCOCC4)cc(C(F)(F)F)c3)CC2)n1 [Example 162, N-(1-(1-(3-morpholino-5-(trifluoromethyl)benzyl)-1,8-diazaspiro[4.5]decane-8-carbonyl)-1H-pyrazol-3-yl) methanesulfonamide]	–	0 to 25	–	≥ 75
